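Dose response: 5 concentrations. Exposure: 48 h. Format: 96-well plates. Endpoint: linear interpolation; highest concentration if not reached. GI50 is the concentration that inhibits growth by half.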 Activity calls are given as the source filed them. Rule as the data show it: active = GI50 up to about 1.1 µM and inactive = higher.
What was measured:
Test in all cases: NCI anticancer screen, dose series, 48 h
[1] = system: Malme-3M
[2] = system: BT-549
[3] = system: ACHN
[4] = system: A498
[5] = system: SW-620
[6] = system: MDA-N
[7] = system: HL-60
[8] = system: M14
[9] = system: IGROV-1
[10] = system: UO-31
[11] = system: 786-0
[12] = system: SF-268
[13] = system: SNB-75
[14] = system: HOP-92
[15] = system: LOX IMVI
[16] = system: MOLT-4
[17] = system: COLO 205
[18] = system: NCI-H522
[19] = system: NCI-H226
[20] = system: T47D

| Compound | GI50 [1] | GI50 [2] | GI50 [3] | GI50 [4] | GI50 [5] | GI50 [6] | GI50 [7] | GI50 [8] | GI50 [9] | GI50 [10] | GI50 [11] | GI50 [12] | GI50 [13] | GI50 [14] | GI50 [15] | GI50 [16] | GI50 [17] | GI50 [18] | GI50 [19] | GI50 [20] |
| --- | --- | --- | --- | --- | --- | --- | --- | --- | --- | --- | --- | --- | --- | --- | --- | --- | --- | --- | --- | --- |
| CN1CC[C@@]2(c3cccc(O)c3)CC(=O)/C(=C/c3ccc(Cl)c(Cl)c3)[C@H]1C2 | 3.44 µM (inactive) | 2.52 µM (inactive) | 1.67 µM (inactive) | 13.6 µM (inactive) | 1.68 µM (inactive) | 1.87 µM (inactive) | 1.52 µM (inactive) | 2.25 µM (inactive) | 2.23 µM (inactive) | 2.07 µM (inactive) | 1.71 µM (inactive) | 2.63 µM (inactive) | 1.06 µM (active) | 4.49 µM (inactive) | 1.48 µM (inactive) | 3.15 µM (inactive) | – | – | – | – |
| CC(C)N1CC2CN(Cc3ccccc3)CC(C1)C2=O | > 100 µM (inactive) | > 100 µM (inactive) | > 100 µM (inactive) | – | > 100 µM (inactive) | > 100 µM (inactive) | > 100 µM (inactive) | > 100 µM (inactive) | > 100 µM (inactive) | > 100 µM (inactive) | > 100 µM (inactive) | > 100 µM (inactive) | > 100 µM (inactive) | > 100 µM (inactive) | > 100 µM (inactive) | > 100 µM (inactive) | > 100 µM (inactive) | > 100 µM (inactive) | > 100 µM (inactive) | – |
| NC(CC1=CCC=CC1)C(=O)O (stereo not given) | – | > 100 µM (inactive) | > 100 µM (inactive) | > 100 µM (inactive) | > 100 µM (inactive) | 59.2 µM (inactive) | – | 80.2 µM (inactive) | 67.8 µM (inactive) | > 100 µM (inactive) | > 100 µM (inactive) | > 100 µM (inactive) | 99.5 µM (inactive) | > 100 µM (inactive) | 91.8 µM (inactive) | 62.2 µM (inactive) | 38 µM (inactive) | – | – | > 100 µM (inactive) |
| CC(=O)OCC1OC(n2c(-c3cccs3)c3c(c(C#N)c2=S)-c2ccccc2CC3)C(OC(C)=O)C(OC(C)=O)C1OC(C)=O (stereo not given) | 7.36 µM (inactive) | 11.7 µM (inactive) | 9.64 µM (inactive) | 7.66 µM (inactive) | 15.5 µM (inactive) | – | 2.64 µM (inactive) | 7.67 µM (inactive) | 9.04 µM (inactive) | 2.97 µM (inactive) | 9.27 µM (inactive) | 14.9 µM (inactive) | 1.36 µM (inactive) | 2.51 µM (inactive) | 6.82 µM (inactive) | 4.48 µM (inactive) | 9.35 µM (inactive) | 10.7 µM (inactive) | 28.4 µM (inactive) | 5.07 µM (inactive) |
| CN(C)C(=N)/N=C(\N)Nc1cccc(Cl)c1 | 45.3 µM (inactive) | 19.5 µM (inactive) | 55.5 µM (inactive) | – | > 100 µM (inactive) | 83.9 µM (inactive) | – | 58.2 µM (inactive) | 24.5 µM (inactive) | 78 µM (inactive) | > 100 µM (inactive) | 35.4 µM (inactive) | 91.2 µM (inactive) | – | 35.9 µM (inactive) | > 100 µM (inactive) | 20 µM (inactive) | – | 22.3 µM (inactive) | 24.8 µM (inactive) |
| NCCCNCCCNCCCN | > 100 µM (inactive) | > 100 µM (inactive) | > 100 µM (inactive) | > 100 µM (inactive) | > 100 µM (inactive) | > 100 µM (inactive) | > 100 µM (inactive) | > 100 µM (inactive) | > 100 µM (inactive) | > 100 µM (inactive) | > 100 µM (inactive) | 3.48 µM (inactive) | – | – | > 100 µM (inactive) | 14.9 µM (inactive) | > 100 µM (inactive) | 54.3 µM (inactive) | > 100 µM (inactive) | 12.6 µM (inactive) |
| O=C1C=CC(=O)c2c1ccc1c3ccccc3n(-c3ccccc3[N+](=O)[O-])c21 | 2.17 µM (inactive) | 4.97 µM (inactive) | 1.71 µM (inactive) | 20.7 µM (inactive) | 1.98 µM (inactive) | 3.04 µM (inactive) | 1.06 µM (active) | 2.03 µM (inactive) | 1.94 µM (inactive) | 1.44 µM (inactive) | 2.13 µM (inactive) | 2.44 µM (inactive) | 13.9 µM (inactive) | – | 1.93 µM (inactive) | 0.543 µM (active) | 2.07 µM (inactive) | 1.63 µM (inactive) | 20.2 µM (inactive) | 1.33 µM (inactive) |
| CCOC(=O)[C@H](CO)NC1=C(Cl)C(=O)c2c(O)ccc(O)c2C1=O | > 10 µM (inactive) | > 10 µM (inactive) | > 10 µM (inactive) | – | > 10 µM (inactive) | > 10 µM (inactive) | > 10 µM (inactive) | > 10 µM (inactive) | > 10 µM (inactive) | – | > 10 µM (inactive) | > 10 µM (inactive) | > 10 µM (inactive) | > 10 µM (inactive) | > 10 µM (inactive) | > 10 µM (inactive) | 3.87 µM (inactive) | > 10 µM (inactive) | > 10 µM (inactive) | > 10 µM (inactive) |
